The values that follow come from patent EP0179386A2, “1,4-Dihydropyridine hydroxyamines, process for their preparation and their use as pharmaceutical agents” (BAYER AG, priority 1984, dated 1986).

In one assay the test system is normotonen Ratten. Briefly: Blood pressure before and after i.v. application in anaesthetised normotensive rats. Format: in vivo. The settings on record: Rattus norvegicus, iv, 1 mg/kg i.v., read-out: BD: Blutdrucksenkung in % bei normotonen Ratten. The method, then: Die erfindungsgemäßen neuen Verbindungen werden Ratten mit einer Dosis von 1 mg/kg intravenös appliziert und der Blutdruck vor und nach der Applikation bestimmt.

For assay [1], the system named is Isoprenalin stimulierten Ratten. The experiment in a line: Lowering of heart rate in rats stimulated with subcutaneous isoprenaline. Format: in vivo. The settings on record: anaesthetised rats, 1 mg/kg i.v., heart rate stimulated by subcutaneous isoprenaline. The method, then: In einem zweiten Test wird die Herzfrequenz von Ratten durch subkutane Applikation von Isoprenalin stimuliert. Dann werden die erfindungsgemäßen Verbindungen appliziert (1 mg/kg i.v.) und 'der Effekt auf die Erniedrigung der Herzfrequenz gemessen.

Each structure is given as a SMILES string.

In the case of `COC(=O)C1=C(C)NC(C)=C(C(=O)OCCNCC(O)COc2cccc3ccccc23)C1c1cccc(Cl)c1` (centres unmarked) [Beispiel 68], the inhibition in vivo at 1 mg/kg in the assay with normotonen Ratten lay within 20 to 30%. Moreover, the “HR: Erniedrigung der Herzfrequenz in absoluten Zahlen bei Isoprenalin stimulierten Ratten (subkutane Applikation)” value (shortened to “HR: Erniedrigung der Herzfrequenz”) in assay [1] is “↓ (15 - < 40)”.
With `CC1=C(C(=O)OCCNCC(O)COc2cccc3ccccc23)C(c2cccc([N+](=O)[O-])c2)C(C(=O)OC(C)C)=C(C)N1` (centres unmarked) [Beispiel 1], the inhibition in vivo at 1 mg/kg in the assay with normotonen Ratten fell in the range of 20 to 30%. For the same compound, the “HR: Erniedrigung der Herzfrequenz” value in assay [1] was “↓↓ (40 < 65)”.
For the compound `COC(=O)C1=C(C)NC(C)=C(C(=O)OCCCCCNCC(O)COc2cccc3ccccc23)C1c1cccc([N+](=O)[O-])c1` (centres unmarked) [Beispiel 16], the inhibition in vivo at 1 mg/kg in the assay on normotonen Ratten was in the range of 10 to 20%. The “HR: Erniedrigung der Herzfrequenz” value in assay [1] is reported as “↓ (15 - < 40)”.
With `COC(=O)C1=C(C)NC(C)=C(C(=O)OCCNCC(O)COc2cccc3ccccc23)C1c1ccccc1[N+](=O)[O-]` (centres unmarked) [Beispiel 69], the inhibition in vivo at 1 mg/kg in the assay on normotonen Ratten fell in the range of 10 to 20%. Further, the “HR: Erniedrigung der Herzfrequenz” value in assay [1] was “↓ (15 - < 40)”.
Take `CC1=C(C(=O)OCCSCCNCC(O)COc2cccc3ccccc23)C(c2cccc([N+](=O)[O-])c2)C(C(=O)OC(C)C)=C(C)N1` (centres unmarked) [Beispiel 31]: the inhibition in vivo at 1 mg/kg in the assay with normotonen Ratten was 20 to 30%. In addition, in assay [1], the “HR: Erniedrigung der Herzfrequenz” value is on record as “↓↓ (40 < 65)”.
On to `CC1=C(C(=O)OCCCNCC(O)COc2cccc3[nH]ccc23)C(c2cccc([N+](=O)[O-])c2)C(C(=O)OC(C)C)=C(C)N1` (centres unmarked) [Beispiel 26], for which the inhibition in vivo at 1 mg/kg with normotonen Ratten is 10 to 20%. The “HR: Erniedrigung der Herzfrequenz” value in assay [1] is reported as “↓↓↓ (65 < 100)”.
As to `COC(=O)C1=C(C)NC(C)=C(C(=O)OCCNCC(O)COc2ccc(CC(N)=O)cc2)C1c1cccc([N+](=O)[O-])c1` (centres unmarked) [Beispiel 25], in the assay with normotonen Ratten, the inhibition in vivo at 1 mg/kg lay in the range of 5 to 10%. Also, the “HR: Erniedrigung der Herzfrequenz” value in assay [1] is “↓ (15 - < 40)”.
Consider `COC(=O)C1=C(C)NC(C)=C(C(=O)OCCOCCNCC(O)COc2cccc3ccccc23)C1c1cccc([N+](=O)[O-])c1` (centres unmarked) [Beispiel 20], for which the inhibition in vivo at 1 mg/kg in the assay on normotonen Ratten was in the range of 10 to 20%. Also, the “HR: Erniedrigung der Herzfrequenz” value in assay [1] is “↓↓ (40 < 65)”.
Take `COC(=O)C1=C(C)NC(C)=C(C(=O)OCCN(C)CCCNCC(O)COc2cccc3ccccc23)C1c1cccc([N+](=O)[O-])c1` (centres unmarked) [Beispiel 32]: the inhibition in vivo at 1 mg/kg in the assay with normotonen Ratten was 10 to 20%. In addition, the “HR: Erniedrigung der Herzfrequenz” value in assay [1] is on record as “↓ (15 - < 40)”.
Taken in the same sequence, the figures for `CC1=C(C(=O)OCCOCCNCC(O)COc2cccc3ccccc23)C(c2cccc([N+](=O)[O-])c2)C(C(=O)OC(C)C)=C(C)N1` (centres unmarked) [Beispiel 30] were 30 to 40% and “(↓) (10)”.
